# Laboratory results taken from patent US7964628B2, “Fibrinogen receptor antagonists and their use” (Piramal Life Sciences Limited, priority 2003, dated 2011).
# Columns and labels:
# [1] = test system: ADP-induced human platelet aggregation; experiment: Inhibition of platelet aggregation in human PRP (ADP-induced); assay type: cell-based; settings: 0.05 h, 3 min at 37° C., ADP 5-15 μM final concentration
# Experimental: Human blood (150 ml) was collected from the ante-cubital vein of normal healthy volunteers (who were not on any medication for the past two weeks), into a siliconized glass bottle containing 25 ml of acid-citrate-dextrose (ACD) solution and 10 units of hirudin. The blood was immediately centrifuged at 200×g for 20 min at room temperature. Platelet-rich plasma (PRP) was separated and the platelet count read using a Beckman Coulter A^cT diff Counter. The tubes were centrifuged again at 2000×g for 10 min at room temperature, to get platelet-free plasma (PFP). The platelet count of PRP was adjusted to 3×10^8 platelets/ml by appropriate dilution with PFP. All in vitro experiments were conducted using PRP with adjusted number of platelets.
# Inhibition of Platelet Aggregation in Human PRP (Born, G. V. R.; Cross, M. J., J. Physiol, 1963, 168, 175)
# PRP was incubated with different concentrations of the test compound for 3 min at 37° C. Platelet aggregation was then induced by the addition of ADP (5-15 μM final concentration). Percent inhibition of platelet aggregation was then calculated by comparing test aggregation values with control values (Table 1).
structure (smiles),measurement,setting,value
"CCOC(=O)COc1ccc(C(=O)CN2Cc3cc(C(=N)N)ccc3C2=O)cc1 [Example 3, (4-{2-[5-Carbamimidoyl-1-oxo-1,3-dihydro-isoindol-2-yl]-acetyl}-phenoxy)-acetic acid ethyl ester]",melting point,,185 to 187 °C
same,IC50,[1],93 nM
"CCOC(=O)COc1ccc(C(=O)CN2Cc3cc(C(=N)N)ccc3C2=O)cc1OCC(=O)OCC [Example 20, (4-{2-[5-Carbamimidoyl-1-oxo-1,3-dihydro-isoindol-2-yl]-acetyl}-2-ethoxycarbonylmethoxy-phenoxy)-acetic acid ethyl ester]",IC50,[1],50 nM
"CC(C)COC(=O)COc1ccc(C(=O)CN2Cc3cc(C(=N)N)ccc3C2=O)cc1OCC(=O)OCC(C)C [Example 24, (4-{2-[5-Carbamimidoyl-1-oxo-1,3-dihydro-isoindol-2-yl]-acetyl}-2-isobutoxycarbonylmethoxy-phenoxy)acetic acid isobutyl ester]",IC50,[1],6 nM
